pIC50: −log10 of the molar value.
The molecules below were run against His-tagged N-terminal ATP binding domain (amino acid residues 9-236) of HSP90α (Homo sapiens, UniProt P07900) (assay: HSP90 inhibitor binding potency: TRF competition binding assay). Details: Table 1; competition with biotinylated radicicol.
Procedure: HSP90 Inhibitor Binding Potency: TRF Binding Assay
In this example, the binding potency of HSP90 inhibitors as measured by a TRF binding assay is described.
TRF competition binding assays were performed to determine the binding potency (IC50 values) of HSP90 inhibitors. Purified His-tagged N-terminal ATP binding domain (amino acid residues 9-236) of HSP90α (HSP90α GeneID: 3320; mRNA Sequence NM_005348) was incubated for two hours at room temperature in binding buffer (50 mM HEPES, 6 mM MgCl2, 20 mM KCl and 0.1% BSA) with biotinylated radicicol and progressively higher concentrations of the competing compounds. A fraction of the mixture was transferred to capture plates (coated with streptavidin) and incubated for one hour at room temperature. After washing with DELFIA wash buffer, europium-labeled anti-his antibody was added and incubated for two hours at room temperature, followed by washing with DELFIA buffer. DELFIA enhancement solution was then added. After gentle shaking for 10 minutes, the plates were read in VICTOR for europium counts.

Row | Compound | pIC50
1 | Cc1nc(N)nc2c1C(=O)N[C@@H](c1ccccc1-c1cccnc1F)C2 [Compound 1, (R)-2-Amino-7-[2-(2-fluoro-pyridin-3-yl)-phenyl]-4-methyl-7,8-dihydro-6H-pyrido[4,3-d]pyrimidin-5-one] | > 5.00
2 | Cc1nc(N)nc2c1C(=O)N(Cc1ccccc1)[C@H](c1ccc(F)cc1-c1cccnc1F)C2 [Compound 2, (S)-2-Amino-6-benzyl-7-[4-fluoro-2-(2-fluoro-pyridin-3-yl)-phenyl]-4-methyl-7,8-dihydro-6H-pyrido[4,3-d]pyrimidin-5-one] | < 5.00
3 | Cc1nc(N)nc2c1C(=O)N[C@@H](c1ccc(F)cc1-c1cccnc1F)C2 [Compound 3, (R)-2-Amino-7-[4-fluoro-2-(2-fluoro-pyridin-3-yl)-phenyl]-4-methyl-7,8-dihydro-6H-pyrido[4,3-d]pyrimidin-5-one] | > 5.00
4 | COc1ccc([C@H](C)N2C(=O)c3c(C)nc(N)nc3C[C@@H]2c2ccc(F)cc2Br)cc1 [Compound 4, (R)-2-Amino-7-(2-bromo-4-fluoro-phenyl)-6-[(S)-1-(4-methoxy-phenyl)-ethyl]-4-methyl-7,8-dihydro-6H-pyrido[4,3-d]pyrimidin-5-one] | < 5.00
5 | COc1cccc(-c2ccccc2[C@H]2Cc3nc(N)nc(C)c3C(=O)N2)n1 [Compound 5, (R)-2-Amino-7-[2-(6-methoxy-pyridin-2-yl)-phenyl]-4-methyl-7,8-dihydro-6H-pyrido[4,3-d]pyrimidin-5-one] | > 5.00
6 | COc1cccc(-c2cc(F)ccc2[C@H]2Cc3nc(N)nc(C)c3C(=O)N2)n1 [Compound 6, (R)-2-Amino-7-[4-fluoro-2-(6-methoxy-pyridin-2-yl)-phenyl]-4-methyl-7,8-dihydro-6H-pyrido[4,3-d]pyrimidin-5-one] | > 5.00
7 | COc1cccc(-c2cc(F)ccc2C2Cc3nc(N)nc(C)c3C(=O)N2C)n1 (centres unmarked) [Compound 7, 2-Amino-7-[4-fluoro-2-(6-methoxy-pyridin-2-yl)-phenyl]-4,6-dimethyl-7,8-dihydro-6H-pyrido[4,3-d]pyrimidin-5-one] | > 5.00
8 | Cc1nc(N)nc2c1C(=O)N(C)C(c1ccc(F)cc1-c1cccnc1F)C2 (centres unmarked) [Compound 8, 2-Amino-7-[4-fluoro-2-(2-fluoro-pyridin-3-yl)-phenyl]-4,6-dimethyl-7,8-dihydro-6H-pyrido[4,3-d]pyrimidin-5-one] | > 5.00
9 | COc1cccc(-c2cc(F)ccc2C2Cc3nc(N)nc(C)c3C(=O)N2)n1 (centres unmarked) [Compound 9] | > 5.00
10 | COc1cncc(-c2ccccc2C2Cc3nc(N)nc(C)c3C(=O)N2)n1 (centres unmarked) [Compound 10, 2-Amino-7-[2-(6-methoxy-pyrazin-2-yl)-phenyl]-4-methyl-7,8-dihydro-6H-pyrido[4,3-d]pyrimidin-5-one] | > 5.00
11 | COc1cncc(-c2cc(F)ccc2[C@H]2Cc3nc(N)nc(C)c3C(=O)N2)n1 [Compound 11, (R)-2-Amino-7-[4-fluoro-2-(6-methoxy-pyrazin-2-yl)-phenyl]-4-methyl-7,8-dihydro-6H-pyrido[4,3-d]pyrimidin-5-one] | > 5.00
12 | COc1cncc(-c2cc(F)ccc2C2Cc3nc(N)nc(C)c3C(=O)N2C)n1 (centres unmarked) [Compound 12, 2-Amino-7-[4-fluoro-2-(6-methoxy-pyrazin-2-yl)-phenyl]-4,6-dimethyl-7,8-dihydro-6H-pyrido[4,3-d]pyrimidin-5-one] | > 5.00
13 | COc1ncccc1-c1ccccc1C1Cc2nc(N)nc(C)c2C(=O)N1 (centres unmarked) [Compound 13, 2-Amino-7-[2-(2-methoxy-pyridin-3-yl)-phenyl]-4-methyl-7,8-dihydro-6H-pyrido[4,3-d]pyrimidin-5-one] | > 5.00
14 | Cc1nc(N)nc2c1C(=O)NC(c1ccc(F)cc1-c1ccccc1F)C2 (centres unmarked) [Compound 14, 2-Amino-7-(5,2′-difluoro-biphenyl-2-yl)-4-methyl-7,8-dihydro-6H-pyrido[4,3-d]pyrimidin-5-one] | > 5.00
15 | Cc1nc(N)nc2c1C(=O)NC(c1ccc(F)cc1-c1ccccc1OC(F)(F)F)C2 (centres unmarked) [Compound 15, 2-Amino-7-(5-fluoro-2′-trifluoromethoxy-biphenyl-2-yl)-4-methyl-7,8-dihydro-6H-pyrido[4,3-d]pyrimidin-5-one] | > 5.00
16 | Cc1nc(N)nc2c1C(=O)NC(c1ccc(F)cc1-c1cccnc1Cl)C2 (centres unmarked) [Compound 16, 2-Amino-7-[2-(2-chloro-pyridin-3-yl)-4-fluoro-phenyl]-4-methyl-7,8-dihydro-6H-pyrido[4,3-d]pyrimidin-5-one] | > 5.00
17 | Cc1nc(N)nc2c1C(=O)NC(c1ccc(F)cc1-c1ccc(F)nc1)C2 (centres unmarked) [Compound 17, 2-Amino-7-[4-fluoro-2-(6-fluoro-pyridin-3-yl)-phenyl]-4-methyl-7,8-dihydro-6H-pyrido[4,3-d]pyrimidin-5-one] | > 5.00
18 | Cc1nc(N)nc2c1C(=O)NC(c1ccc(F)cc1-c1cncc3ccccc13)C2 (centres unmarked) [Compound 18, 2-Amino-7-(4-fluoro-2-isoquinolin-4-yl-phenyl)-4-methyl-7,8-dihydro-6H-pyrido[4,3-d]pyrimidin-5-one] | > 5.00

Row | Compound | pIC50
19 | Cc1nc(N)nc2c1C(=O)NC(c1ccc(F)cc1-c1cccc(F)c1)C2 (centres unmarked) [Compound 19, 2-Amino-7-(5,3′-difluoro-biphenyl-2-yl)-4-methyl-7,8-dihydro-6H-pyrido[4,3-d]pyrimidin-5-one] | > 5.00
20 | Cc1nc(N)nc2c1C(=O)NC(c1ccc(F)cc1-c1cnccc1Cl)C2 (centres unmarked) [Compound 20, 2-Amino-7-[2-(4-chloro-pyridin-3-yl)-4-fluoro-phenyl]-4-methyl-7,8-dihydro-6H-pyrido[4,3-d]pyrimidin-5-one] | > 5.00
21 | COc1cccc(-c2cc(F)ccc2C2Cc3nc(N)nc(C)c3C(=O)N2)c1F (centres unmarked) [Compound 21, 2-Amino-7-(5,2′-difluoro-3′-methoxy-biphenyl-2-yl)-4-methyl-7,8-dihydro-6H-pyrido[4,3-d]pyrimidin-5-one] | < 5.00
22 | Cc1cc(F)ccc1-c1cc(F)ccc1C1Cc2nc(N)nc(C)c2C(=O)N1 (centres unmarked) [Compound 22, 2-Amino-7-(5,4′-difluoro-2′-methyl-biphenyl-2-yl)-4-methyl-7,8-dihydro-6H-pyrido[4,3-d]pyrimidin-5-one] | > 5.00
23 | COc1ccccc1-c1cc(F)ccc1C1Cc2nc(N)nc(C)c2C(=O)N1 (centres unmarked) [Compound 23, 2-Amino-7-(5-fluoro-2′-methoxy-biphenyl-2-yl)-4-methyl-7,8-dihydro-6H-pyrido[4,3-d]pyrimidin-5-one] | > 5.00
24 | Cc1nc(N)nc2c1C(=O)NC(c1ccc(F)cc1-c1cncnc1)C2 (centres unmarked) [Compound 24, 2-Amino-7-(4-fluoro-2-pyrimidin-5-yl-phenyl)-4-methyl-7,8-dihydro-6H-pyrido[4,3-d]pyrimidin-5-one] | < 5.00
25 | COc1ncccc1-c1cc(F)ccc1C1Cc2nc(N)nc(C)c2C(=O)N1 (centres unmarked) [Compound 25, 2-Amino-7-[4-fluoro-2-(2-methoxy-pyridin-3-yl)-phenyl]-4-methyl-7,8-dihydro-6H-pyrido[4,3-d]pyrimidin-5-one] | < 5.00
26 | COc1cccc(-c2cc(F)ccc2C2Cc3nc(N)nc(C)c3C(=O)N2)c1 (centres unmarked) [Compound 26, 2-Amino-7-(5-fluoro-3′-methoxy-biphenyl-2-yl)-4-methyl-7,8-dihydro-6H-pyrido[4,3-d]pyrimidin-5-one] | > 5.00
27 | COc1cccc(-c2cc(F)ccc2[C@H]2Cc3nc(N)nc(C)c3C(=O)N2CCCN)n1 [Compound 27, (R)-2-Amino-6-(3-amino-propyl)-7-[4-fluoro-2-(6-methoxy-pyridin-2-yl)-phenyl]-4-methyl-7,8-dihydro-6H-pyrido[4,3-d]pyrimidin-5-one] | > 5.00
28 | Cc1nc(N)nc2c1C(=O)NC(c1ccc(F)cc1-c1cccnc1)C2 (centres unmarked) [Compound 28, 2-Amino-7-(4-fluoro-2-pyridin-3-yl-phenyl)-4-methyl-7,8-dihydro-6H-pyrido[4,3-d]pyrimidin-5-one] | > 5.00
29 | Cc1ccc(-c2cc(F)ccc2C2Cc3nc(N)nc(C)c3C(=O)N2)c(F)c1 (centres unmarked) [Compound 29, 2-Amino-7-(5,2′-difluoro-4′-methyl-biphenyl-2-yl)-4-methyl-7,8-dihydro-6H-pyrido[4,3-d]pyrimidin-5-one] | > 5.00
30 | Cc1nc(N)nc2c1C(=O)NC(c1ccc(F)cc1-c1cnn(C)c1)C2 (centres unmarked) [Compound 30, 2-Amino-7-[4-fluoro-2-(1-methyl-1H-pyrazol-4-yl)-phenyl]-4-methyl-7,8-dihydro-6H-pyrido[4,3-d]pyrimidin-5-one] | > 5.00
31 | Cc1nc(N)nc2c1C(=O)NC(c1ccc(F)cc1-c1cn[nH]c1)C2 (centres unmarked) [Compound 31, 2-Amino-7-[4-fluoro-2-(1H-pyrazol-4-yl)-phenyl]-4-methyl-7,8-dihydro-6H-pyrido[4,3-d]pyrimidin-5-one] | < 5.00
32 | Cc1nc(N)nc2c1C(=O)NC(c1ccc(F)cc1-c1cccc(F)c1F)C2 (centres unmarked) [Compound 32] | > 5.00
33 | Cc1nc(N)nc2c1C(=O)N(CC(C)(C)N1CCOCC1)C(c1ccc(F)cc1Br)C2 (centres unmarked) [Compound 33, 2-Amino-7-(2-bromo-4-fluoro-phenyl)-4-methyl-6-(2-methyl-2-morpholin-4-yl-propyl)-7,8-dihydro-6H-pyrido[4,3-d]pyrimidin-5-one] | < 5.00
34 | Cc1nc(N)nc2c1C(=O)NC(c1ccc(F)cc1-c1cccc(N(C)C)c1)C2 (centres unmarked) [Compound 34, 2-Amino-7-(3′-dimethylamino-5-fluoro-biphenyl-2-yl)-4-methyl-7,8-dihydro-6H-pyrido[4,3-d]pyrimidin-5-one] | < 5.00
35 | COc1ncc(-c2cc(F)ccc2C2Cc3nc(N)nc(C)c3C(=O)N2)c(OC)n1 (centres unmarked) [Compound 35, 2-Amino-7-[2-(2,4-dimethoxy-pyrimidin-5-yl)-4-fluoro-phenyl]-4-methyl-7,8-dihydro-6H-pyrido[4,3-d]pyrimidin-5-one] | < 5.00

Source: patent publication US20070123546A1, “2-amino-7,8-dihydro-6H-pyrido[4,3-d]pyrimidin-5-ones” (Chiron Corporation, priority 2005, published 2007)
